Legend:
human monocytes [1] = experiment: Chemotaxis (migration) of human monocytes, 48-well chamber; type: cell-based; conditions: PT 100 ng/ml, 37° C., 30 min
Description: (§1) Reagents and cells. Aβ peptide (Aβ42) and the peptide with reversed sequence (Aβ42-1) were purchased from California Peptide Research (Napa, Calif.). All peptides were examined for endotoxin contamination and were negative at highest concentrations used in the study. Human peripheral blood monocytes were isolated from buffy coats (National Institutes of Health Clinical Center, Bethesda, Md.) enriched for mononuclear cells by using iso-osmotic Percoll gradient. The purity of the cell preparations was examined by morphology and was >90%. Rat basophilic leukemia cell line (RBL-2H3) transfected with epitope-tagged N-formylpeptide receptor (FPR) (designated ETFR) was a kind gift of Dr. R. Snyderman (Duke University, Durham, N.C.). cDNA cloning and establishment of FPRL1-transfected human embryonic kidney (HEK) 293 cells (FPRL1/293) were described previously (Gao J. L. & Murphy P. M. 1993 J Biol Chem 268:[…]). All the transfected cells were maintained in culture media as described (Su S. B. et al. 1999 J Exp Med 189:395-402).
(§2) Chemotaxis assays and measurement of calcium mobilization. Chemotaxis assays were performed using 48-well chemotaxis chambers (Deng X. et al. 1999 Blood 94:1165-1673). The results were expressed as the mean number (±SD) of migrated cells in three high-powered fields in three replicate samples. Chemotaxis index, which represented the fold increase in the number of cells migrated in response to chemoattractants over the cell response to control medium, also was used. Ca^+ mobilization was measured by stimulating fura-2 AM-loaded human monocytes or receptor-transfected cells with various agents (Deng X. et al. 1999 Blood 94:1165-1673; Su S. B. et al. 1999 J Exp Med 189:395-402) and recording the ratio of fluorescence at 340 and 380 nm in a luminescence spectrometer with FL WinLab program (Perkin-Elmer, Beaconsfield, UK).

human monocytes [2] = experiment: Ca2+ mobilization in fura-2 loaded human monocytes; type: cell-based; conditions: PT-treated cells, 20 μM Aβ42
Description: as §1, §2

mouse neutrophils = experiment: Calcium flux in mouse neutrophils; type: cell-based; conditions: PTX 250 ng/ml for 4 h
Description: Preparation of Mouse Neutrophils. Neutrophils were obtained from the peritoneal cavity of wild type and gene knockout litter mates of F1 and F6 backcrosses of 129/sV FPR−/− mice with C57B1/6 mice 3-4 h after intraperitoneal injection of a 3% thioglycollate solution, as previously described (Gao J-L. et al. 1999 J Exp Med 189:657-662). The cell population was consistently composed of >90% neutrophils, as determined by light microscopy of DiffQuick-stained cytospins. Thus, hereafter we will refer to this cell preparation as neutrophils.
Calcium Flux Analysis. To monitor intracellular Ca^2+ concentration, adherent cells were harvested by incubation in phosphate-buffered saline at 37° C. for 15 min and then incubated in phosphate-buffered saline containing 2.5 μM Fura-2/AM at 37° C. for 45 min. […] Data were recorded every 200 ms as the relative ratio of fluorescence emitted at 510 nm following sequential excitation at 340 and 380 nm. The following ligands were evaluated: Aβ (nonfibrillated, human residues 1-42; California Peptide Research; Napa, Calif.), fMet-Leu-Phe (fMLF; Sigma), ATP (Life Technologies), and the chemokines RANTES (regulated upon activation normal T-cell expressed and secreted), SDF-1 (stromal cell-derived factor-1), 1-309, fractalkine, MIP-1α (macrophage inflammatory protein-1α), and KC (Peprotech, Rocky Hill, N.J.). […]

[3] = test system: N9 murine microglial cell line; experiment: Chemotaxis of N9 microglial cells; type: cell-based, mouse; conditions: LPS-activated N9 cells; PTX 100 ng/ml, 37° C., 30 min

With pertussis toxin the “effect of preincubation on monocyte migration in response to Aβ42” value (human monocytes [1]) was “completely abolished”, the “effect of preincubation on monocyte calcium flux in response to Aβ42” value (human monocytes [2]) was “completely abolished” and the “effect of pretreatment on Aβ induction of calcium flux” value (mouse neutrophils) was “completely blocked”. For the same substance, the “effect of pretreatment on chemotaxis to Aβ” value [3] was “completely blocked”.

Source: patent US20050130890A1, “Amyloid beta is a ligand for FPR class receptors” (priority 2001, published 2005)
